A short description of series [1]: Acute toxicity LD50 in ICR mice (Test Example 11). The settings on record: mouse, in vivo, one week, Provit method. The protocol:
As test animals, ICR-strain mice (male) were used. According to the conventional procedure, suspension or solution of test sample was administered to the animals. From the number of the died animals until one week after the administration, LD50 values were obtained by Provit method.

Series [2] in a line: Acute toxicity LD50 in mice (Test Example 8). The settings on record: mouse, in vivo, one week, Probit method. The protocol:
ddy-Strain mice (male) and Wistar strain rats were used to obtain LD50 values.
According to the ordinary procedure, suspension or solution of test sample was administered to the animals. From the number of the died animals until one week after the administration, LD50 values were obtained by Probit method.

Series [3] deals with mast cell in abdominal cavity. Nature of the series: Release of histamine by antigen DNP-Ascaris, mast cell in abdominal cavity (Test Example 12). Type of series: cell-based, rat. The settings on record: 10^-3 M; stronger than DSCG. The protocol:
(§1) Collection of mast cells in abdominal cavity and thoracic cavity and sensitizing of cells were conducted in similar manners to those in Test Example 10, respectively.
(1) Preparation of DNP-Ascaris antiserum was conducted in manner similar to that in Test Example 6.
This is conducted in amanner similar to that in Test Example 10.
(§2) This is conducted in a manner similar to that in Test Example 10.

Series [4] concerns mast cell in abdominal cavity. Nature of the series: Release of histamine by dextran (T-500), mast cell in abdominal cavity (Test Example 12). Type of series: cell-based, rat. The protocol: as §1
(§3) The sample solution was treated with 105 microgramms/ml phosphatidylserin PBS solution (0.5 ml) and incubated at 37° C. for 30 minutes, followed by addition of 25 mg/ml dextran (T-500) PBS solution (0.5 ml) and further incubation for 15 minutes.
as §2

Series [5] concerns Mast cell in thoracic cavity. Nature of the series: Release of histamine by dextran (T-500), mast cell in thoracic cavity (Test Example 12). Type of series: cell-based, rat. The protocol: as §1, §3, §2
For series [6], the system named is passive cutaneous anaphylaxis (PCA). Nature of the series: Anti-passive cutaneous anaphylaxis activity (PCA) in rats (Test Example 9). Type of series: in vivo. The settings on record: Rattus norvegicus, po, 10 animals. The protocol: (§4) Wistar strain rats were sensitized with ovalbumin using aluminium hydroxide gel and Bordetella Pertussis vaccine as adjuvants. Dilutions of antiserum (16-fold and 32-fold) obtained by collecting blood samples 14 days later were administered subcutaneously in the dorsal skin of the rats of the same strain at the rate of 0.1 ml per spot, and the rats were grown for 48 hours. One hour after peroral administration of the sample solution, a mixture of antigen ovalbumin and Evans-blue dye was administered to the tail venous of the animal according to the ordinary procedure. Thirty minutes later, the animals were sacrificed by exsanguination, and the areas of blue spots (long diameter×short diameter) eliciting on the portion of the antiserum injection at the dorsal skin were measured to obtain the rate of inhibition based on the average value shown by the control animals.
This test was conducted in a manner similar to that in Test Example 2, except that the dilutions of antiserum were 12- and 24-folds.

Series [7] shares this test system. Nature of the series: Anti-passive cutaneous anaphylaxis (PCA) activity in rats (Test Example 2). The class given is in vivo, Wistar strain rats. Conditions: Rattus norvegicus, N 10; for inhibition in vivo at 10 mg/kg: 10 mg/kg PO; for inhibition in vivo at 50 mg/kg: 50 mg/kg PO; for inhibition in vivo at 100 mg/kg: 100 mg/kg PO; for inhibition in vivo at 200 mg/kg: 200 mg/kg PO. The protocol: as §4

Another series deals with SRS-A. The series is described as follows: Anti-SRS-A activity, contraction of guinea pig ileum by crude SRS-A solution. More on the design: key to Anti-SRS-A activity (rate of inhibition against the contraction amount): % inhibition of SRS-A-induced ileum contraction. The protocol:
A piece of lungs of guinea pig sensitized with ovalbumin was incubated with antigen ovalbumin at 37° C. for 20 minutes to obtain a supernatant solution, which was used as a crude SRS-A solution.
A piece of ileum of normal guinea pig was suspended in Magnus tube filled with Tyrode's solution and incubated with the solution of drug to be examined for a certain duration, and the contraction of the piece of ileum induced by adding the above crude SRS-A solution was determined on the basis of the contraction rate attributed to hystamine dihydrochloride 10^-6 M. The rate of inhibition against the contraction amount was taken as anti-SRS-A activity.

Series [8] relates to anaphylaxis reaction to inhalated antigen. Nature of the series: Antigen inhalation test on passive sensitized guinea pig (experimental asthma model). The class given is in vivo. Conditions: 200 mg/kg po.
Procedure: The test compound and Tranilast were respectively suspended at the time of use in 5% gum arabic solution containing 0.1% Tween 80 at the rate of 40 mg/ml, and were perorally administered at the rate of 0.5 ml per 100 g body weight of the animal.
DSCG was dissolved at the time of use in physiological saline solultion for injection at the rate of 5.0 mg/ml, and was intravenously injected at the rate of 0.1 ml per 100 g body weight of the animal.
Anti-ovalbumin rabbit serum diluted with physiological saline solution for injection so as tc contain anti-ovalbumin rabbit antibody at the rate of 0.187 mg N/ml was intravenously administered to guinea pig at the rate of 0.1 ml per 100 g of body weight and it was passively sensitized.
Twenty-four hours later, the suspension of the compound prepared in (1) above was perorally or intravenously administered to the animal. The animal was put in the inhalation chamber one hour after the administration in case of the peroral administration and five minutes after the administration in case of the intravenous administration, and 2% physiological saline solution of antigen ovalbumin was inhaled by spraying. Over 10 minutes' period from the time immediately after the forced inhalation, the time until its fall attributed to anaphylaxis reaction was recorded, and the numbers of alive and dead animals after lapse of 10 minutes were also counted.
The test system of series [9] is mast cell in abdominal cavity. Nature of the series: Inhibition of histamine release from mast cell in abdominal cavity in rat (Test Example 6). The class given is cell-based. The settings on record: for activity at 1000 µM / activity at 100 µM / activity at 10 µM / activity at 1 µM: Rattus norvegicus, Mast cell, 20 min, DNP-Ascaris 20 microgramms/ml, read-out: Amount of histamine released from peritoneal mast cell (Control = 100); for activity at 1000 µM: 10^-3 M; for activity at 100 µM: 10^-4 M; for activity at 10 µM: 10^-5 M; for activity at 1 µM: 10^-6 M. The protocol:
Examination was made on the activity of inhibition of histamine release from mast cell by antigen-antibody reaction.
Swine ascaris extract solution was dinitrophenylated according to Aisen's method, dialysed, and lyophilized. The product was administered as antigen together with Bordetella Pertussis vaccine subcutaneously into the foot pad of rat. Eight days later, blood was taken to obtain antiserum. The PCA titer for this antiserum in rat was 32 to 64.
Heparin-containing PBS was injected intraperitoneally to rat which was sacrificed by exsanguination, after which the abdomen was well massaged to collect the injected PBS, which was purified by washing several times by centrifugation. The number of the mast cells contained in the solution was determined and adjusted to the designed concentration. As to method of sensitizing the cell, the above cell suspension (6 ml, 2×10^6 cells/ml) was treated with anti-DNP-Ascaris rat serum (PCA titer 32) (6 ml) and the mixture was incubated in the presence of hepain at 37° C. for 2 hours.
To the sensitized mast cell suspension the solution of the drug to be tested was added, and the mixture was preliminarily incubated at 37° C. for 12 minutes. After addition of the solution of antigen DNP-Ascaris (final concentration, 20 microgramms/ml), the mixture was further incubated for 20 minutes. After completion of the reaction, the solution was centrifuged (500 G, 10 min.) under a low temperature to obtain a supernatant solution. Histamine contained in the supernatant solution was subjected to fluorometry by crthophthalaldehyde method.

The test system of another series is hyaluronidase. The settings on record: known from the literature; cited from earlier work.
Where [10] appears, read: intravenous, read-out: LD50 Value (mg/kg of body weight) Intravenous administration.
The mark [11] stands for this setting: read-out: Inhibition, Anti-serum Dilution: × 12.
Setting [12] is: read-out: Inhibition, Anti-serum Dilution: × 24.
Setting [13] is: read-out: Average Inhibition Rate (%) Antiserum Dilution: × 16.
[14] abbreviates: read-out: Average Inhibition Rate (%) Antiserum Dilution: × 32.

Values joined by “and” are separate entries in the source; they are usually repeats but may differ in a detail not shown here. Identical values can stand only once. Like-named read-outs stand apart in the source and are kept apart here.

With `CCOC(=O)c1ccccc1NC(=O)C(=Cc1ccccc1)C(=O)Nc1ccccc1C(=O)OCC` [Compound 14, Diethyl 2,2'-[(1,3-dioxo-2-phenylmethylene-1,3-propanediyl)diimino]bisbenzoate], the LD50 at 168 h in series [1] (setting [10]) was 347 mg/kg; in series [2] (iv, read-out: LD50 value (mg/kg body weight) Mouse i.v.), 299 mg/kg; in [2] (po, read-out: LD50 value (mg/kg body weight) Mouse p.o.) it was over 10000 mg/kg. Further, the “histamine release inhibiting activity, antigen DNP-Ascaris (in words)” value in [3] is “histamine release inhibiting activity”. For the same compound, the “histamine release inhibiting activity, dextran (T-500) (in words)” value in [4] (10^-4 and 10^-3 M, almost the same as DSCG) is listed as “histamine release inhibiting activities”. Also, the activity at 1000 µM in series [4] (Rattus norvegicus, Mast cell, 0.25 h, 10^-3 M, read-out: Effect on release of histamine by dextran (T-500), Mast cell in abdominal cavity (control 100)) came to 40.2%; in [5] (Rattus norvegicus, Mast cell, 0.25 h, 10^-3 M, read-out: Effect on release of histamine by dextran (T-500), Mast cell in thoracic cavity (control 100)), 42.2%. Further, in series [4] (Rattus norvegicus, Mast cell, 0.25 h, 10^-4 M, read-out: Effect on release of histamine by dextran (T-500), Mast cell in abdominal cavity (control 100)), the activity at 100 µM was 94.5%. In addition, the “Effect on release of histamine by dextran (T-500), Mast cell in thoracic cavity (control 100)” value in series [5] (10^-4, 15 min) worked out at 55.6. Besides, the inhibition in vivo at 10 mg/kg in series [6] (setting [11]) came to 29.8%; in [6] (setting [12]), 31.3%; in series [7] (setting [13]) it was 38.6%; in series [7] (setting [14]), 38.7%. For the same compound, the inhibition in vivo at 50 mg/kg in series [6] (setting [11]) was 36.7%; in series [6] (setting [12]), 40.5%; in series [7] (setting [13]) it was 41.9%; in series [7] (setting [14]), 72.2%. Besides, the inhibition in vivo at 100 mg/kg amounted to 59.3% in [7] (setting [13]) and 85.1% in series [7] (setting [14]).

On to `COc1ccc(/C=C/C(=O)Nc2ccccc2C(=O)O)cc1OC` [Tranilast, reference compound], for which the “Anti-SRS-A activity (rate of inhibition against the contraction amount)” value in the series with SRS-A (10^-3 M), in the series with SRS-A (10^-4 M), in the series on SRS-A (10^-5 M) and in the series with SRS-A (10^-6 M) was 0 each time. Also, the “anti-SRS-A activity (in words)” value in the series with SRS-A (compound 11 at a concentration of 10^-3 M) is recorded as “no activity”. The “Extended rate (%)” value in [8] is reported as -3.0%. For the same compound, the “preventive effect on anaphylaxis reaction (in words)” value in series [8] is listed as “no activity”. In addition, the “Average time for falling Mean ± S.E.” value in series [8] (N 5) was determined as 150.8 ± 14.8 s. In addition, the “Required time (sec.) for falling and Number of death (#), single animals” value in series [8] (N 5, observed 10 minutes, # shows death) is 116 s and 126 s and 141 s and 181 s and 190 s. Moreover, the activity at 1000 µM in series [9] was found to be 29%. Moreover, in series [9], the activity at 100 µM is 67%. Further, in series [9], the activity at 10 µM was 95%. Further, the activity at 1 µM in series [9] turned out to be 95%. In the series with hyaluronidase, the “effect on hyaluronidase activity (in words)” value was “inhibit hyaluronidase activity”. The inhibition in vivo at 200 mg/kg in series [6] (setting [11]) came to 2.1%; in series [6] (setting [12]) it was 10.7%; in [7] (setting [13]), 1.8%; in series [7] (setting [14]), 15.8%.

As for `O=c1oc(C(=Cc2ccccc2)c2nc3ccccc3c(=O)o2)nc2ccccc12` [Compound 52, 2,2'-phenylethenilidenebis(3,1-benzoxazine-4-one)], in series [1] (po, peroral, read-out: LD50 Value (mg/kg of body weight) Peroral administration), the LD50 at 168 h is over 10000 mg/kg. The LD50 at 168 h in series [1] (setting [10]) amounted to 319 mg/kg. Moreover, in series [9], the activity at 1000 µM turned out to be 21%, the activity at 100 µM came to 60%, the activity at 10 µM is 68% and the activity at 1 µM stood at 70%. Moreover, in series [9] (even at the low concentration of 10^-6 M), the “inhibition of release of histamine from the mast cell (in words)” value is on record as “inhibiting release of histamine”. For the same compound, in series [7] (setting [13]), the inhibition in vivo at 10 mg/kg was determined as 20.6%, the inhibition in vivo at 50 mg/kg amounted to 37.9% and the inhibition in vivo at 100 mg/kg turned out to be 45%. Also, in [7] (setting [14]), the inhibition in vivo at 10 mg/kg was found to be 29.4%, the inhibition in vivo at 50 mg/kg was 38.3% and the inhibition in vivo at 100 mg/kg came out at 47.1%.

Regarding polymixin B, the “effect on hyaluronidase activity (in words)” value with hyaluronidase is on record as “activate hyaluronidase”.

Source of the values: patent US4822791A, “Pharmaceutical compositions of-2,2-1,1-[bis-2,2'-(3,1-benzoxazin-4-one)9 ethylenes” (priority 1984, dated 1989).
